We go through 2 compounds from PMC7815647 (Biochemistry and Biophysics Reports, 2021).

This experiment has as its system Nit11764. Conditions: 40 mM Na-K phosphate pH 7.0.

As for `N#C/C=C/c1ccccc1` [Cinnamonitrile], the Km stood at 1.27 ± 0.4 mM.
On to `N#C/C=C/C#N` [Fumaronitrile], for which the Km amounted to 8.57 ± 0.8 mM.
